# Assay results taken from PubChem BioAssay (NCI).
# Where “and” joins values, the source holds several entries; their conditions need not be identical. Equal entries are not always repeated.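 96-well plates; 48 h exposure; 5 concentrations. Endpoints by linear interpolation between flanking doses. Not reached: highest tested concentration assigned. At the GI50, growth is halved. Definition used: TGI = concentration required for complete inhibition of growth.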
# Legend:
# Experiment in all cases: NCI tumour cell line growth inhibition, 48 h
# LOX IMVI melanoma = tested on: LOX IMVI melanoma
# UO-31 renal = tested on: UO-31 renal
# MALME-3M melanoma = tested on: MALME-3M melanoma
# NCI-H226 lung = tested on: NCI-H226 lung
# SF-268 CNS = tested on: SF-268 CNS
# A498 renal = tested on: A498 renal
# SF-295 CNS = tested on: SF-295 CNS
# NCI/ADR-RES ovarian = tested on: NCI/ADR-RES ovarian
# SK-OV-3 ovarian = tested on: SK-OV-3 ovarian
# SK-MEL-28 melanoma = tested on: SK-MEL-28 melanoma
SMILES,GI50 (LOX IMVI melanoma) [µM],TGI (LOX IMVI melanoma),GI50 (UO-31 renal) [µM],TGI (UO-31 renal),GI50 (MALME-3M melanoma) [µM],TGI (MALME-3M melanoma),GI50 (NCI-H226 lung) [µM],TGI (NCI-H226 lung),GI50 (SF-268 CNS) [µM],TGI (SF-268 CNS),GI50 (A498 renal) [µM],TGI (A498 renal),GI50 (SF-295 CNS) [µM],TGI (SF-295 CNS),GI50 (NCI/ADR-RES ovarian) [µM],TGI (NCI/ADR-RES ovarian),GI50 (SK-OV-3 ovarian) [µM],TGI (SK-OV-3 ovarian),GI50 (SK-MEL-28 melanoma) [µM],TGI (SK-MEL-28 melanoma)
O=C1C(Cl)=C(Nc2cccc(O)c2)C(=O)N1c1ccc(Cl)c(Cl)c1,15.8,33.3 µM,31.7,> 100 µM,19.7,55 µM,19.7,46.6 µM,23.8,62.3 µM,12.1,28.7 µM,25.9,83.5 µM,22.4,52.3 µM,25.5,73.3 µM,40.6,> 100 µM
CC(=O)OC1CCC2(C)C(=CCC3C2CCC2(C)C(C(C)C(=O)O)CCC32)C1 (centres undefined),,> 100 µM,,> 100 µM,,> 100 µM,,> 100 µM,,> 100 µM,,> 100 µM,,> 100 µM,,> 100 µM,,> 100 µM,,> 100 µM
COc1ccc(-c2nn(-c3cccc(NC(=O)Nc4cc(C(F)(F)F)cc(C(F)(F)F)c4)c3)cc2-c2ccncc2)cc1Cl,1.51,5.64 µM,0.799,7.32 µM,1.23,4.2 µM,1.33,6.35 µM,1.59,8.68 µM,0.507,3.17 µM,1.01,3.36 µM,1.25,13.3 µM,1.52,7.38 µM,1.14,4.18 µM
O=c1[nH]c(SCc2c(Cl)c(Cl)c(Cl)c(Cl)c2Cl)nc(=S)[nH]1,,> 100 µM,,> 58.9 µM,,73.4 µM,,> 100 µM,,> 100 µM,,> 100 µM,,> 100 µM,,> 100 µM,,> 100 µM,,98.6 µM
N#Cc1c(-c2ccccc2)cc(-c2ccccc2)n(CCCCC(=O)NO)c1=O,1.71,3.22 µM,1.22,3.47 µM,1.25,13.3 µM,3.98,19 µM,2.71,7.9 µM,1.25,3.55 µM,2.13,4.56 µM,0.703,3.18 µM,2.06,5 µM,2.8,10.4 µM
COc1cc([C@@H]2c3cc4c(cc3[C@@H](O[C@@H]3O[C@@H]5CO[C@@H](c6cccs6)O[C@H]5[C@H](O)[C@H]3O)[C@H]3COC(=O)[C@H]23)OCO4)cc(OC)c1O,0.0969,2.26 µM,1.78,14.7 µM,0.435,5.02 µM,0.152,0.742 µM,0.266,7.2 µM,0.284,2.2 µM,0.186,8.21 µM,19,> 100 µM,0.456,10.2 µM,0.44,2.9 µM
OC(COc1cccc2ccccc12)CN1CCN(c2ccccc2)CC1 (centres undefined),15.8,31.1 µM,5.94,20.4 µM,15.3,31.4 µM,14.7,29.7 µM,16.4,31.3 µM,13.5,26.4 µM,12.6,26.6 µM,15.4,30.4 µM,17,32.4 µM,17,31.6 µM
COc1ccc(/C=C\c2cc(OC)c(OC)c(OC)c2)cc1OC(=O)c1cccc(Cn2cc(CCOC(=O)c3cccc(Cn4nnc5c4C(=O)c4ccccc4C5=O)c3)nn2)c1,0.0149,> 100 µM,0.16,79.5 µM,0.178,> 71.3 µM,0.15,> 37.1 µM,0.0395,35 µM,< 0.01,,0.0316,4.36 µM,< 0.01,0.421 µM,2.73,46.7 µM,11.7,> 75.7 µM
CC(=O)OC[C@]12CC[C@@H]([C@@H](C)C(N)=O)[C@@H]1[C@H]1CC[C@@H]3[C@@]4(C)CC[C@H](OC(C)=O)C(C)(C)[C@@H]4CC[C@@]3(C)[C@]1(C)CC2,10.2,24.4 µM,7.57,21.1 µM,10.5,24.2 µM,7.28,23.9 µM,6.95,22.3 µM,12.8,25.6 µM,8.57,29.8 µM,7.74,27.2 µM,13.4,64 µM,12,27.3 µM
C#CCNC(=O)CC[C@]1(C)[C@H]2CC[C@@H]3[C@@H]([C@@](C)(O)CCC=C(C)C)CC[C@@]3(C)[C@]2(C)CC[C@H]1C(=C)C,9.73,27.4 µM,14.1,29.1 µM,16.4,35 µM,18.3,43.1 µM,22,57.1 µM,> 100,> 100 µM,48.4,> 100 µM,40.5,> 100 µM,> 100,> 100 µM,26.9,80 µM
COc1c(CNC(=O)CCl)cc2[nH]c(C)cc2c1CNC(=O)CCl,3.17,31.8 µM,15.7,56.7 µM,16.1,50.3 µM,9.2,73.7 µM,3.44,21.7 µM,4.29,19.1 µM,12.8,71.9 µM,56.1,> 100 µM,12.4,86.4 µM,5.44,29.8 µM
CC1=C(/C=C/C(C)=C/C=C/C(C)=C/C(=O)Nc2ccc(O)cc2)C(C)(C)CCC1,0.588,2.26 µM and 4.76 µM,1.17,2.57 µM and 11.6 µM,2.1,6.48 µM and 18.7 µM,10.3,23.9 µM and 16.7 µM,1.52,3.94 µM and 14.2 µM,1.96,9.07 µM and 19.1 µM,0.932,3.74 µM and 12.3 µM,2.29,7.07 µM and 18.4 µM,2.82,9.71 µM and 17.2 µM,2.87,8.69 µM and 12.1 µM
